Tests used:
Format in all cases: cell-based, human
[1] = test system: methylated UCHL1 promoter EGFP reporter in HCT116 cells; test: UCHL1 promoter demethylation assay (EGFP expression, FACS) in HCT116; conditions: 5 days, HCT116 with methylated pUCHL1 vector
Description: Human colon cancer HCT116 (ATCC, VA, USA) cells were propagated in McCoy’s 5A medium (Euroclone, Milan, Italy) with 10% fetal bovine serum (FBS; Euroclone), 2 mM L-glutamine (Euroclone), and antibiotics (100 U/mL penicillin, 100 µg/mL streptomycin) (Euroclone). For the treatments with MC3353, 5-AZA, and DAC as positive controls, 2 × 10^4 cells were seeded in 6-well plates in triplicate. Cells were treated every 2 days, and the medium was changed. On day 5, cells were observed under a fluorescent microscope. The nuclei were counterstained with DAPI (10 μg/mL, Invitrogen, Tournai, Belgium).
Fluorescence of EGFP and DAPI in living cells was analyzed by Cytation™ 5 Cell Imaging Multi-Mode Reader (BioTeK, Milan, Italy).
Before the transfection, the pUMLIEP vector was linearized by with ClaI restriction enzyme (New England Biolabs, Milan, Italy) and then it was methylated by SssI-methylase (New England Biolabs, Milan, Italy) for 60 min. The methylated vector was transfected into HCT116 cells using Lipofectamine™2000 (Invitrogen, Monza, Italy) and Opti-MEM® (Gibco, Monza, Italy), and stably introduced clones were selected with puromycin (1.0 μg/mL, Sigma-Aldrich, Milan, Italy). The detailed protocol for the generation of cells highly responsive to DNA demethylating agents is described in [27].
Next, the demethylating activity of MC3353 was evaluated in cells transfected with luciferase and EGFP reporter genes driven by the UCHL1 promoter. The UCHL1 promoter is silenced by methylation in human colon cancer and can be demethylated by specific treatments, inducing expression of Metridia luciferase and EGFP reporter genes. In particular, the pUCHL1 vector, after methylation, was transfected into HCT116 colon cancer cells, and the stable clone was obtained by puromycin selection. Afterwards, cells were treated with 5-AZA (5 μM), with DAC (5 μM), or with MC3353 (0.1 μM) for 5 days. Such a low MC3353 dose was used because of its cytotoxicity at higher concentrations in long treatments.

[2] = test system: double DNMT knockout (DKO) HCT116 cells; test: MTT proliferation assay DKO HCT116; conditions: 24 and 48 h; MC3353 at 0.5 μM after 48 h; DAC, 5-AZA up to highest dose
Description: DKO HCT116 (ATCC, VA, USA) cells were propagated in Dulbecco’s modified Eagle medium (DMEM) (Euroclone, Milan, Italy) with 10% fetal bovine serum (FBS; Euroclone, Milan, Italy), 2 mM L-glutamine (Euroclone, Milan, Italy) and antibiotics (100 U/mL penicillin, 100 µg/mL streptomycin) (Euroclone, Milan, Italy).
The MTT [3-(4,5-dimethylthiazol-2-yl)-2,5-diphenyltetrazolium bromide] (Sigma-Aldrich, Milan, Italy) assay was used to determine the proliferation of HCT116 clone and DKO HCT116 cells after treatment with MC3353, 5-AZA, and DAC. 5 × 10^4 cells/well for both cell lines were plated in 24-well plate and treated, in duplicate, with compounds at several concentrations for 24 and 48 h of induction. After treatments, MTT solution was added for 3 h at 0.5 mg/mL, the purple formazan crystals were dissolved in DMSO (Sigma-Aldrich, Milan, Italy), and the absorbance was read at a wavelength of 570 nm with reader TECAN M-200.

[3] = test system: E-cadherin mRNA in HCT116 cells; test: qPCR of E-cadherin in HCT116; conditions: MC3353 0.1 μM 24 h; 5-AZA, DAC every 2 days for 5 days at 0.1, 1, 5 μM
Excerpt: (§1) RNAs were extracted by ReliaPrep™ RNA Tissue Miniprep (Promega, Madison, WI, USA) and reverse transcribed with PrimeScript RT Master Mix (Takara, Kusatsu, Shiga, Japan). cDNAs were amplified by a qPCR reaction using GoTaq qPCR Master Mix (Promega) and analyzed with the oligonucleotide pairs specific for the target genes. Relative amounts, determined with the 2^(−ΔCt) method, were normalized with respect to the human housekeeping gene L32. The primers used are as follows: L32 (forward: 5′-[…]-3′, reverse: 5′-[…]-3′), E-cadherin (forward: 5′-[…]-3′, reverse: 5′-[…]-3′), and MMP2 (forward: 5′-[…]-3′, reverse: 5′-[…]-3′).
(§2) Prompted by these findings, we investigated the ability of MC3353 to modulate EMT pathway, using 5-AZA and DAC as reference drugs. […] The levels of mRNA transcripts of E-cadherin and matrix metalloproteinase-2 (MMP2) were determined. E-cadherin is involved in the maintenance of the epithelial identity and in the control of tumor invasiveness, whereas MMP2, through degradation of type IV collagen, the most abundant component of the basement membrane, controls an essential step for metastatic progression of most cancers as well as for induction of angiogenesis.

MMP2 mRNA in PC-3 cells = test: qPCR of MMP2 in PC-3; conditions: MC3353 0.1 and 1 μM 24 h; 5-AZA, DAC 5 days, also at 0.1 to 1 μM
Excerpt: as §1, §2

[4] = test system: ALP expression in Saos-2 cells; test: Saos-2 osteoblast differentiation, RT-qPCR; conditions: 0.5 and 1 μM, only at the most extended exposure (day 21)
Description: (§3) Four days after seeding, Saos-2 cells were exposed to specific osteogenic medium (IMDM supplemented with 2% FBS, 5 mM β-glycerophosphate, and 50 μg/mL ascorbic acid, Sigma-Aldrich, Milan, Italy) without (control) or with MC3353 (0.5–1 μM) or DAC (0.1–0.5 μM) and maintained in differentiating conditions for up to 21 days. The medium was renewed every 4 days, and the cells were harvested at various time points to collect total RNA and verify bone mineralization. Specific osteoblastic markers were evaluated by quantitative real-time PCR (RT-qPCR) as previously described. The primers or assays (Applied Biosystems, Foster City, CA, USA) used are as follows: GAPDH (forward: 5′-[…]-3′, reverse: 5′-[…]-3′ and probe: 5′-[…]-3′), OCN (forward: 5′-[…]-3′, reverse: 5′-[…]-3′), ALP (Hs01029144_m1), and COL1A2 (Hs01028970_m1). Amplification reactions were performed using a ViiA7™ Real-Time PCR System (Life Technologies, Carlsbad, CA, USA). To visualize bone mineralization (osteoblastic differentiation) after 7–21 days of MC3353 or DAC treatment, the plates were stained with 40 mM Alizarin red stain (ARS, Sigma-Aldrich, Milan, Italy). ARS staining was visualized with an ECLIPSE 90i microscope (Nikon, Minato, Tokyo, Japan) equipped with Plan fluor 10× NA 0.3. Images were acquired with an autocapture setting using a digital color camera (Nikon DS5 MC) and NIS-Elements AR3.10 software (Nikon, Minato, Tokyo, Japan).

[5] = test system: OCN expression in Saos-2 cells; test: Saos-2 osteoblast differentiation, RT-qPCR; conditions: 0.5 and 1 μM, along 3 weeks, osteogenic medium
Description: as §3

Compound	EGFP gene expression induction (FACS) ([1]; 5 μM) [%]	effect on DKO HCT116 proliferation (MTT) [2]	E-cadherin mRNA expression, HCT116 [3]	MMP2 mRNA expression, PC-3 (MMP2 mRNA in PC-3 cells)	EGFP gene expression induction (FACS) ([1]; 0.1 μM) [%]	ALP expression, Saos-2 [4]	OCN expression, Saos-2 [5]
Nc1ncn([C@H]2C[C@H](O)[C@@H](CO)O2)c(=O)n1 [DAC, 5-aza-2′-deoxycytidine, reference compound]	49.7	No evidence of cytotoxicity	able to induce E-cadherin expression	increased MMP2 level	–	–	–
O=C(Nc1ccc(NC(=O)c2ccc(Nc3ccnc4ccccc34)cc2)cc1)OCc1ccccc1 [MC3353, Benzyl (4-(4-(quinolin-4-ylamino)benzamido)phenyl)carbamate]	–	markedly less efficient to impair cell proliferation	induced E-cadherin mRNA expression transcripts	strongly downregulated	81.4	weak induction of ALP expression	increased OCN expression

Reference: publication PMC6501426 (Clinical Epigenetics, 2019)
